{
  "source": "patent US10640545B2",
  "about": "(THE GOVERNORS OF THE UNIVERSITY OF ALBERTA, priority 2017, dated 2020)",
  "key": {"[1]": {"biological_target": "T1, wild-type rat apelin receptor (Rattus norvegicus, UniProt Q9JHG3)", "T1 construct": "expressed in transfected cells", "T1 sequence (Q9JHG3 1-377)": "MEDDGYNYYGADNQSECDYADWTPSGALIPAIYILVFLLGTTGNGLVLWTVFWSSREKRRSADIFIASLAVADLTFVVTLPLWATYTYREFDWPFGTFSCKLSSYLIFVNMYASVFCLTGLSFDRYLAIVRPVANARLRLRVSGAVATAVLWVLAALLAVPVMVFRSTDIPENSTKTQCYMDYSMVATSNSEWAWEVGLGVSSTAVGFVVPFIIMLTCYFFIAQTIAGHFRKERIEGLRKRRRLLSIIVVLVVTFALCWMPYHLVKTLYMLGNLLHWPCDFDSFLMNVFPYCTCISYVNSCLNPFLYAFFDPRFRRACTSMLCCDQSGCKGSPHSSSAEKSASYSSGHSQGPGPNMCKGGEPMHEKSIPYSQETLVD", "assay": "Radioligand binding, displacement of [125I]-pyr-1-apelin-13 on CHO cell membranes", "method_in_brief": "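Membranes (1 μg) from CHO cells stably expressing rat apelin receptor-EGFP incubated 3 h at 20 °C with 0.2 nM [125I]-pyr-1-apelin-13 and varying peptide concentrations in 50 mM HEPES, 5 mM MgCl2, 1% BSA, pH 7.5. Bound radioactivity measured by filtration and gamma counting.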"}, "[2]": {"biological_target": "KLKB1 (Homo sapiens, UniProt P03952)", "sequence (P03952 20-638)": "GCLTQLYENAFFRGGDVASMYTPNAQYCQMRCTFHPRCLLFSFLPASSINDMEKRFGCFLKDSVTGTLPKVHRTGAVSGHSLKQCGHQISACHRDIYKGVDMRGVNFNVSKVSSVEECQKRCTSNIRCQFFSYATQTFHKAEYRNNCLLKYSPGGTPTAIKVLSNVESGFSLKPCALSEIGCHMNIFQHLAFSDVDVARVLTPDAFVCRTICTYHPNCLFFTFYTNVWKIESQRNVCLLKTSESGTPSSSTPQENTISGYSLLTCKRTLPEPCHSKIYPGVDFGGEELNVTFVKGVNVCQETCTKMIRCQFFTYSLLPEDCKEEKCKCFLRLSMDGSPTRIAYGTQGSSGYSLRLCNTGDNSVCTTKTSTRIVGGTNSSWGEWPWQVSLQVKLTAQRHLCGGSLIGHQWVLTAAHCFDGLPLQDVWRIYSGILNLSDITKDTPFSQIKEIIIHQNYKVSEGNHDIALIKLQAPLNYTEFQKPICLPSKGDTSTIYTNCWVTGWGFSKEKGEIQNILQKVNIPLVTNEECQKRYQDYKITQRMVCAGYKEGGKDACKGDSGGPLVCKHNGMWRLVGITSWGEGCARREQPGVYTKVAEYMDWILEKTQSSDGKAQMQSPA", "assay": "Kinetic parameters for KLKB1 cleavage", "format": "biochemical", "design": "purchased Novoprotein", "conditions": "for Km / kcat: enzyme KLKB1"}, "[3]": {"biological_target": "T2, NEP (Homo sapiens, UniProt P08473)", "T2 sequence (P08473 whole entry)": "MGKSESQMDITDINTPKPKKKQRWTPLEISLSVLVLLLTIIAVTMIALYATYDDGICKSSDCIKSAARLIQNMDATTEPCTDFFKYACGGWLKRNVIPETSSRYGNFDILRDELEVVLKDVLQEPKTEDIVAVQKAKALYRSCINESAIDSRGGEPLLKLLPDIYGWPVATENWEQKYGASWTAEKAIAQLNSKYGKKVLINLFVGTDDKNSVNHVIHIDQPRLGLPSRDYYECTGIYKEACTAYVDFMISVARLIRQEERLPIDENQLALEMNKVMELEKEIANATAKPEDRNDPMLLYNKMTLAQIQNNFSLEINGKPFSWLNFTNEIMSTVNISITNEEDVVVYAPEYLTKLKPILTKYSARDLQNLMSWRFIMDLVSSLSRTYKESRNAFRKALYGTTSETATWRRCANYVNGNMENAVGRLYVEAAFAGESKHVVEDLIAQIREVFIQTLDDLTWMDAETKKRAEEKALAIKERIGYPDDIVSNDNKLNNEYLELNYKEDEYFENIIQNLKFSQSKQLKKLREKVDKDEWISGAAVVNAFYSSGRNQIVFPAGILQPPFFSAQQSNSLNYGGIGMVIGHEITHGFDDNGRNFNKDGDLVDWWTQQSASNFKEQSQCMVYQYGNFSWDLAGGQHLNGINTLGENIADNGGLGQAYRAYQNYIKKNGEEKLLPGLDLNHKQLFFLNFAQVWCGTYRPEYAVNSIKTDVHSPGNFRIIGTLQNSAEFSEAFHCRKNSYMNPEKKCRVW", "assay": "Kinetic parameters for NEP cleavage", "format": "biochemical", "design": "purchased Sino Biological", "conditions": "enzyme NEP"}, "[4]": {"system": "Ldlr^−/− mice", "assay": "Angiotensin II-induced abdominal aortic aneurysm", "format": "in vivo", "method": "Experimental Animals and Protocols. Male LDL receptor deficient (Ldlr^−/−) mice were generated and bred in C57BL/6 background. All animal experiments were carried out in accordance with the Canadian Council on Animal Care Guidelines, and animal protocols were reviewed and approved by the Animal Care and Use Committee at the University of Alberta.\nAlzet micro-osmotic pump (model 1002 or 1004; Durect Co.) was implanted subcutaneously at the dorsum of the neck to infuse Ang II (1.5 mg/kg^−1d^−1) or vehicle (saline) for 28 days in high fat fed Ldlr^−/− mice.\nAfter 4 weeks of Ang II or saline infusion, mice underwent whole body perfuse-fixation, via the left ventricle, with 10% buffered formalin (80 mmHg, 20 min). […] Collagen positive area was quantified by the morphometric analysis using the Metamorph Basic (version 7.7.0.0) software. In situ DNA fragmentation was detected in 5-μm thick FFPE sections of aorta using the commercially available terminal deoxynucleotidyl transferase-mediated dUTP nick-end labeling (TUNEL) assay kit according to manufacturer's instructions (Invitrogen) as previously described. […] Thickness of the medial layer of the aorta was measured in calibrated images as the mean distance between the external elastin lamella and the internal elastin lamella from 8 randomly selected fields of the cross-section of an aorta using the Metamorph Basic software (version 7.7.0). […]"}, "[5]": {"biological_target": "T2, NEP", "assay": "Neprilysin inhibition assay (degradation of 1 after preincubation with peptide)", "format": "biochemical", "design": "purchased Sino Biological", "conditions": "preincubation of NEP with equimolar peptide", "method": "This experiment investigates the ability of synthetic peptides 8-19 to inhibit the inherent proteolytic activity of NEP.\nAssays were performed in duplicate (n=2) for each time point."}},
  "note": "Where a SMILES comes first, the peptide text is derived from it. [ ]: non-standard residue; d: D form. Phe(4-Br) = N[C@@H](Cc1ccc(Br)cc1)C(=O)O; NMeL = CN[C@@H](CC(C)C)C(=O)O; Nle = CCCC[C@H](N)C(=O)O; Aib = CC(C)(N)C(=O)O",
  "data": [
    {"compound": "CSCC[C@H](NC(=O)[C@@H]1CCCN1C(=O)CNC(=O)[C@H](CCCCN)NC(=O)[C@H](Cc1cnc[nH]1)NC(=O)[C@H](CO)NC(=O)[C@H](CC(C)C)NC(=O)[C@H](CCCNC(=N)N)NC(=O)[C@@H]1CCCN1C(=O)[C@H](CCCNC(=N)N)NC(=O)[C@H](CCC(N)=O)NC(=O)[C@H](CCCNC(=N)N)NC(=O)[C@H](CCCNC(=N)N)NC(=O)[C@H](Cc1ccccc1)NC(=O)[C@@H](N)CCCCN)C(=O)N1CCC[C@H]1C(=O)N[C@@H](Cc1ccccc1)C(=O)O", "note": "[Peptide 2, reference compound]", "values": [
      {"measurement": "Ki", "setting": "[1]; displacement of [125I]-pyr-1-apelin-13 (0.2 nM), CHO membranes, rat apelin receptor-EGFP, means ± SE, read-out: Affinity Ki", "result": 50, "unit": "pM"},
      {"measurement": "Km", "setting": "[2]", "result": "97 ± 21", "unit": "µM"},
      {"measurement": "kcat", "setting": "[2]", "result": "13.7 ± 1.3", "unit": "s⁻¹"},
      {"measurement": "Km", "setting": "[3]", "result": "190 ± 40", "unit": "µM"},
      {"measurement": "kcat", "setting": "[3]", "result": "3.4 ± 0.3", "unit": "s⁻¹"}
    ]},
    {"compound": "CCCC[C@H](NC(=O)[C@@H]1CCCN1C(=O)CNC(=O)[C@H](CCCCN)NC(=O)[C@H](Cc1c[nH]cn1)NC(=O)[C@H](CO)NC(=O)[C@H](CC(C)C)N(C)C(=O)[C@H](CCCNC(=N)N)NC(=O)[C@@H]1CCCN1C(=O)[C@H](CCCNC(=N)N)NC(=O)[C@H](CCC(N)=O)NC(=O)[C@H](CCCNC(=N)N)NC(=O)[C@H](CCCNC(=N)N)NC(=O)[C@H](Cc1ccccc1)NC(=O)[C@@H](N)CCCCN)C(=O)NC(C)(C)C(=O)N[C@@H](Cc1ccc(Br)cc1)C(=O)O", "note": "[Peptide 11] (H-KFRRQRPR[NMeL]SHKGP[Nle][Aib][Phe(4-Br)]-OH; C-terminus assumed)", "values": [
      {"measurement": "receptor binding affinity (in words)", "setting": "[1]; rat apelin receptor", "result": "sub-nanomolar receptor affinities"},
      {"measurement": "oxidative stress (DHE fluorescence and NADPH oxidase activity)", "setting": "[4]; aorta of Ldlr^−/− mice, Ang II + peptide", "result": "suppression of oxidative stress"},
      {"measurement": "formation of abdominal aortic aneurysm", "setting": "[4]; high fat fed Ldlr^−/− mice, Ang II 1.5 mg/kg/d 28 days, peptide 3 mg/kg/d intraperitoneal 28 days", "result": "markedly prevented the formation of abdominal aortic aneurysm"},
      {"measurement": "degradation by KLKB1 (in words)", "setting": "[2]; KLKB1", "result": "degraded quickly"},
      {"measurement": "Km", "setting": "[2]", "result": "245 ± 75", "unit": "µM"},
      {"measurement": "kcat", "setting": "[2]", "result": "16.5 ± 2.1", "unit": "s⁻¹"},
      {"measurement": "inhibition of the proteolytic activity of NEP", "setting": "[5]", "result": "no ability to inhibit the inherent activity of NEP"}
    ]}
  ]
}
